From US8247211B2, “Glycopeptide antibiotics” (American Cyanamid Company, priority 2001, dated 2012)
In brackets after ≈: the same amount, converted by molar mass.

What was measured:
[1] = Anatomic pathology (heart and kidney histopathology) in mice; assay type: in vivo, CD-1 mice; conditions: 20 mg/kg intravenously daily for 9 days, microscopic histopathology on day 10
In short: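 Histopathology on H&E-stained, paraffin-embedded sections, subjectively scored (slight, mild, moderate, marked, severe) relative to untreated controls. Dosing: glycopeptide antibiotics 20 mg/kg intravenously once daily ×9 days in 20-day-old CD-1 mice, n=5 per group including vehicle.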

[2] = test system: Staphylococcus sp.; assay: In vitro antibacterial evaluation: minimum inhibitory concentration (MIC), broth dilution method; assay type: cell-based
In short: (§1)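 Following NCCLS approved standard M7-A2, compounds are serially diluted from 64 to 0.06 μg/mL in Muller-Hinton II […] and inoculated at 5×10^5 CFU/mL; the MIC is the minimum concentration at which growth is inhibited.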

[3] = test system: Streptococcus sp.; assay: as above; assay type: cell-based; conditions: 18 hours at 35° C.
In short: as §1

[4] = test system: Enterococcus sp.; assay: as above; assay type: cell-based; conditions: 18 hours at 35° C.
In short: as §1

[5] = test system: Escherichia coli; assay: as above; assay type: cell-based; conditions: 18 hours at 35° C.
In short: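 Values are minimum inhibitory concentrations, meaning the smallest antibiotic concentration that stops growth of the organism. They come from broth dilution in Muller-Hinton II […] per NCCLS guidance (M7-A2), using 5×10^5 CFU/mL and concentrations from 64 to 0.06 μg/mL.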

[6] = test system: Staphylococcus aureus-SMITH (GC 4543); assay: Acute lethal infection in mice (ED50); assay type: in vivo; conditions: female CD-1 mice, intraperitoneal challenge, intravenous dose 30 min. after infection, 7 day survival ratios
In short: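 IP bacterial challenge, female CD-1 mice; inoculum lethal to untreated controls in 24-48 hr. IV dosing in saline or 5% dextrose 30 min post-infection, 5 mice/dose. ED50 from 7-day survival, 3 tests pooled.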

[7] = broth dilution, inoculum 5×10^5 CFU/mL

In the case of `CC(C1CCCCC1)C1NC(=O)CNC(=O)C(CO)NC(=O)C(C(O)C2CNC(=N)N2C2OC(CO)C(O)C(O)C2O)NC(=O)C(C(O)C2CNC(=N)N2)NC(=O)C(Cc2ccc(OC3OC(CO)C(OC4OC5COC6(OC5C(O)C4O)C4CC5CC(C4)CC6C5)C(O)C3O)cc2)NC1=O` (stereo not drawn) [Example 221, Cyclo[3-cyclohexyl-2-aminobutanoyl-O-[4-O-[4,6-O-(2-adamantylidene)hexopyranosyl]hexopyranosyl]tyrosyl-3-(2-iminoimidazolidin-4-yl)seryl-3-(3-hexopyranosyl-2-iminoimidazolidin-4-yl)serylserylglycyl]], the “Anatomical Pathology (Day 10), Heart” value [1] is reported as 0, the “Anatomical Pathology (Day 10), Kidney” value [1] is reported as 0 and the “MIC Staphylococcus aureus (ATCC 29213)” value ([2]; strain ATCC 29213) is reported as 1 µg/mL (≈ 0.698 µM). For the same compound, the “MIC Staphylococcus aureus (GC 1131)” value ([2]; strain GC 1131) was 2 µg/mL (≈ 1.4 µM), the “MIC Staphylococcus aureus (GC 3051)” value ([2]; strain GC 3051) was 2 µg/mL (≈ 1.4 µM) and the “MIC Staphylococcus aureus (GC 3053)” value ([2]; strain GC 3053) was 1 µg/mL (≈ 0.698 µM). The “MIC Staphylococcus aureus (GC 4541)” value ([2]; strain GC 4541) was 2 µg/mL (≈ 1.4 µM), the “MIC Staphylococcus aureus (GC 4542)” value ([2]; strain GC 4542) was 2 µg/mL (≈ 1.4 µM) and the “MIC Staphylococcus aureus-SMITH (GC 4543)” value ([2]; strain GC 4543) was 2 µg/mL (≈ 1.4 µM). For the same compound, the “MIC Staphylococcus aureus (GC 4544)” value ([2]; strain GC 4544) was 2 µg/mL (≈ 1.4 µM), the “MIC Staphylococcus aureus (GC 4545)” value ([2]; strain GC 4545) was 2 µg/mL (≈ 1.4 µM) and the “MIC Staphylococcus haemolyticus (GC 4546)” value ([2]; strain GC 4546) was 2 µg/mL (≈ 1.4 µM). For the same compound, the “MIC Coagulase Negative Staphylococcus (GC 4547)” value ([2]; strain GC 4547) was 2 µg/mL (≈ 1.4 µM), the “MIC Coagulase Negative Staphylococcus (GC 4548)” value ([2]; strain GC 4548) was 1 µg/mL (≈ 0.698 µM) and the “MIC Coagulase Negative Staphylococcus (GC 4549)” value ([2]; strain GC 4549) was 1 µg/mL (≈ 0.698 µM). The “MIC Coagulase Negative Staphylococcus (GC 4551)” value ([2]; strain GC 4551) was 2 µg/mL (≈ 1.4 µM), the “MIC Streptococcus agalactiae (GC 4564)” value ([3]; Streptococcus agalactiae (GC 4564)) was under 0.12 µg/mL and the “MIC Streptococcus pneumoniae (ATCC 6301)” value ([3]; Streptococcus pneumoniae (ATCC 6301)) was under 0.12 µg/mL. For the same compound, the “MIC Streptococcus pneumoniae (GC 1894)” value ([3]; Streptococcus pneumoniae (GC 1894)) was under 0.12 µg/mL, the “MIC Streptococcus pneumoniae (GC 4565)” value ([3]; Streptococcus pneumoniae (GC 4565)) was under 0.12 µg/mL and the “MIC Streptococcus pyogenes (GC 4563)” value ([3]; Streptococcus pyogenes (GC 4563)) was under 0.12 µg/mL. For the same compound, the “MIC Streptococcus agalactiae (GC 4564)” value [3, 7] was under 0.12 µg/mL, the “MIC Streptococcus pneumoniae (ATCC 6301)” value [3, 7] was under 0.12 µg/mL and the “MIC Streptococcus pneumoniae (GC 1894)” value [3, 7] was under 0.12 µg/mL. For the same compound, the “MIC Streptococcus pneumoniae (GC 4565)” value [3, 7] was under 0.12 µg/mL, the “MIC Streptococcus pyogenes (GC 4563)” value [3, 7] was under 0.12 µg/mL and the “MIC Enterococcus avium (GC 4558)” value ([4]; Enterococcus avium (GC 4558)) was 2 µg/mL (≈ 1.4 µM). The “MIC Enterococcus faecalis (ATCC 29212)” value ([4]; Enterococcus faecalis (ATCC 29212)) was 2 µg/mL (≈ 1.4 µM), the “MIC Enterococcus faecalis (GC 2242)” value ([4]; Enterococcus faecalis (GC 2242)) was 2 µg/mL (≈ 1.4 µM) and the “MIC Enterococcus faecalis (GC 2691)” value ([4]; Enterococcus faecalis (GC 2691)) was 2 µg/mL (≈ 1.4 µM). The “MIC Enterococcus faecalis (GC 3059)” value ([4]; Enterococcus faecalis (GC 3059)) was 1 µg/mL (≈ 0.698 µM), the “MIC Enterococcus faecalis (GC 4552)” value ([4]; Enterococcus faecalis (GC 4552)) was 2 µg/mL (≈ 1.4 µM) and the “MIC Enterococcus faecalis (GC 4553)” value ([4]; Enterococcus faecalis (GC 4553)) was 2 µg/mL (≈ 1.4 µM). The “MIC Enterococcus faecalis (GC 4554)” value ([4]; Enterococcus faecalis (GC 4554)) was 2 µg/mL (≈ 1.4 µM), the “MIC Enterococcus faecalis (GC 6189)” value ([4]; Enterococcus faecalis (GC 6189)) was 1 µg/mL (≈ 0.698 µM) and the “MIC Enterococcus faecium (GC 2243)” value ([4]; Enterococcus faecium (GC 2243)) was 2 µg/mL (≈ 1.4 µM). The “MIC Enterococcus faecium (GC 4556)” value ([4]; Enterococcus faecium (GC 4556)) was 2 µg/mL (≈ 1.4 µM), the “MIC Enterococcus faecium (GC 4557)” value ([4]; Enterococcus faecium (GC 4557)) was 1 µg/mL (≈ 0.698 µM) and the “MIC Enterococcus avium (GC 4558)” value [4, 7] was 2 µg/mL (≈ 1.4 µM). For the same compound, the “MIC Enterococcus faecalis (ATCC 29212)” value [4, 7] was 2 µg/mL (≈ 1.4 µM), the “MIC Enterococcus faecalis (GC 2242)” value [4, 7] was 2 µg/mL (≈ 1.4 µM) and the “MIC Enterococcus faecalis (GC 2691)” value [4, 7] was 2 µg/mL (≈ 1.4 µM). The “MIC Enterococcus faecalis (GC 3059)” value [4, 7] was 1 µg/mL (≈ 0.698 µM), the “MIC Enterococcus faecalis (GC 4552)” value [4, 7] was 2 µg/mL (≈ 1.4 µM) and the “MIC Enterococcus faecalis (GC 4553)” value [4, 7] was 2 µg/mL (≈ 1.4 µM). For the same compound, the “MIC Enterococcus faecalis (GC 4554)” value [4, 7] was 2 µg/mL (≈ 1.4 µM), the “MIC Enterococcus faecalis (GC 6189)” value [4, 7] was 1 µg/mL (≈ 0.698 µM) and the “MIC Enterococcus faecium (GC 2243)” value [4, 7] was 2 µg/mL (≈ 1.4 µM). The “MIC Enterococcus faecium (GC 4556)” value [4, 7] was 2 µg/mL (≈ 1.4 µM), the “MIC Enterococcus faecium (GC 4557)” value [4, 7] was 1 µg/mL (≈ 0.698 µM) and the “MIC Escherichia coli (ATCC 25922)” value ([5]; Escherichia coli (ATCC 25922)) was 64 µg/mL (≈ 44.6 µM). The “MIC Escherichia coli (GC 4559)” value ([5]; Escherichia coli (GC 4559)) was 32 µg/mL (≈ 22.3 µM), the “MIC Escherichia coli (GC 4560)” value ([5]; Escherichia coli (GC 4560)) was 2 µg/mL (≈ 1.4 µM) and the median effective dose (ED50), Staphylococcus aureus-SMITH (GC 4543) [6] was 0.03 mg/kg.
